The text below walks through data of patent publication US9157054B2, “Device and method for preparing microparticles” (The University of Queensland, priority 2007, dated 2015).

For data set [1] the following is noted: British Pharmacopoeia 2008; cited from earlier work.
A short description of data set [2]: Particle size by optical microscopy. Type of data set: physicochemical. The text has this:
Alginate gel microparticles were examined using an optical microscope (Zeiss, AXIOSCOP 40) with […] attachment (AXIOCam MRm). The morphology and particle size of GS-loaded alginate microparticles were characterized according to the methods described above. The morphology of insulin-loaded alginate gel microparticles and the particle size were characterized according to the methods described above. The morphology and particle size was characterized according to the methods described above.

The next data set can be described thus: physchem. The settings on record: aqueous buffer.

Values after ≈ are worked out from the molar mass of the structure shown. Values joined by “and” are separate entries in the source; they are usually repeats but may differ in a detail not shown here. Equal values may be shown once.

As for `CC(C)Cc1ccc(C(C)C(=O)O)cc1` (centres unmarked) [ibuprofen], in data set [1], the “solubility in acetone, methanol and dichloromethane (DCM)” value is “freely soluble”; the solubility in water entry is “practically insoluble”. Further, the powder particle size in data set [2] ('as received' powder, before size reduction) is 30-100 micron and 30-40 micron. Besides, in data set [2] (after precipitation from acetone into alginate solution, optical microscope), the “crystal / powder particle size” value is given as 10-15 microns. In the data set “physchem”, this molecule returned a solubility of 300 µg/mL (≈ 1450 µM).

A word on the solubility: it is the concentration that dissolves in the medium under given conditions. Read a high solubility as much dissolved substance.
